Laboratory results: patent publication US20150119363A1, “METHODS OF TREATING BACTERIAL INFECTIONS” (Rampex Pharmaceuticals, Inc., priority 2012, published 2015)

Experiments:
Format in all cases: cell-based
[1] = tested on: Escherichia coli EC1007 (KPC-3); assay: Checkerboard assay, Compound 5 with biapenem; conditions: EC1007
Text: (§1) The potentiation effect is observed by the reduction of the minimum inhibitory concentration of β-lactam antibiotics in the presence of β-lactamase inhibitors (BLIs). […] Methods for Dilution of Antimicrobial Susceptibility Tests for Bacteria That Grow Aerobically—Eighth Edition; Approved Standard. CLSI Document M07-A8, 2009). In this assay, multiple dilutions of two drugs, namely BLI and β-lactam (biapenem), are being tested, alone and in combination, at concentrations equal to, above and below their respective minimal inhibitory concentrations (MICs). BLIs are solubilized in 10% DMSO at 10 mg/mL. Stock solutions are further diluted, according to the needs of a particular assay, in Mueller Hinton Broth (MHB). Stock solution can be stored at −80° C.
(§2) The checkerboard (CB) assay is performed in microtiter plates. Biapenem is diluted in the x axis, each column containing a single concentration of antibiotic. BLIs are diluted in the y axis, each row containing an equal concentration of BLI. The result of these manipulations is that each well of the microtiter plate contains a unique combination of concentrations of the two agents. The assay is performed in MHB with a final bacterial inoculum of 5×10^5 CFU/mL (from an early-log phase culture). Microtiter plates are incubated during 20 h at 35° C. and are read using a microtiter plate reader (Molecular Devices) at 650 nm as well as visual observation using a microtiter plate reading mirror.

[2] = tested on: Klebsiella oxytoca KX1019 (KPC-2, OXA-2); assay: Checkerboard assay, Compound 5 with biapenem; conditions: KX1019
Text: as §1, §2

[3] = tested on: Klebsiella pneumoniae KP1004 (KPC-2); assay: Checkerboard assay, Compound 5 with biapenem; conditions: KP1004
Text: as §1, §2

[4] = tested on: Enterobacter cloacae ECL1058 (KPC-3, SHV-11, TEM-1); assay: Checkerboard assay, Compound 5 with biapenem; conditions: ECL1058
Text: as §1, §2

[5] = tested on: Klebsiella pneumoniae KP1008 (KPC-2); assay: Checkerboard assay, Compound 5 with biapenem; conditions: KP1008
Text: as §1, §2

[6] = tested on: Enterobacter cloacae ECL1059 (KPC-3, SHV-12, TEM-1); assay: Checkerboard assay, Compound 5 with biapenem; conditions: ECL1059
Text: as §1, §2

[7] = tested on: Klebsiella pneumoniae KP1088 (KPC-3, SHV-11, TEM-1); assay: Checkerboard assay, Compound 5 with biapenem; conditions: KP1088
Text: as §1, §2

[8] = tested on: Klebsiella oxytoca KX1018 (KPC-2, SHV-40, OXY-1); assay: Checkerboard assay, Compound 5 with biapenem; conditions: KX1018
Text: as §1, §2

[9] = tested on: Klebsiella pneumoniae KP1082 (KPC-2, SHV-1); assay: Checkerboard assay, Compound 5 with biapenem; conditions: KP1082
Text: as §1, §2

[10] = tested on: Klebsiella oxytoca KX1017 (KPC-2, OXA-2, SHV-30); assay: Checkerboard assay, Compound 5 with biapenem; conditions: KX1017
Text: as §1, §2

[11] = tested on: Klebsiella pneumoniae KP1087 (KPC-2, CTX-M-15, SHV-11, TEM-1); assay: Checkerboard assay, Compound 5 with biapenem; conditions: KP1087
Text: as §1, §2

[12] = tested on: Klebsiella pneumoniae KP1083 (KPC-3, SHV-1, TEM-1); assay: Checkerboard assay, Compound 5 with biapenem; conditions: KP1083
Text: as §1, §2

[13] = tested on: Klebsiella pneumoniae KP1084 (KPC-3, SHV-11, TEM-1); assay: Checkerboard assay, Compound 5 with biapenem; conditions: KP1084
Text: as §1, §2

[14] = tested on: Klebsiella pneumonia (KPM1097) NDM-1, KPC-2; assay: Biapenem MIC at various concentrations of Compound 5; conditions: KPM1097 NDM-1, KPC-2
[15] = tested on: K. pneumoniae KP1081 (NDM-1, CMY-6, SHV-11, CTX-M-15, TEM-1); assay: Aztreonam/Tigemonam MIC at various concentrations of BLI; conditions: KP1081
Protocol: MIC values for each bacterial strain were measured for each antimicrobial compound at various concentrations of each BLI.

[16] = tested on: strains expressing KPC alone or in combination with additional beta-lactamases; assay: Checkerboard assay, Compound 5 with biapenem (summary); conditions: highest concentration of Compound 5 10 mg/L
Text: as §1
as §2, with “The assay is performed in MHB with a final bacterial inoculum of 5×10^5 CFU/mL (from an early-log phase culture).” left out

SMILES: O=C(O)C[C@@H]1CC[C@H](NC(=O)Cc2cccs2)B(O)O1 [Compound 5, 2-((3R,6S)-2-hydroxy-3-(2-(thiophen-2-yl)acetamido)-1,2-oxaborinan-6-yl)acetic acid]
- Biapenem MIC ([1]; Compound 5 0.31 mg/L): X (X = MIC of less than 0.5 mg/L.)
- Biapenem MIC ([1]; Compound 5 0.625 mg/L): X (X = MIC of less than 0.5 mg/L.)
- Biapenem MIC ([1]; Compound 5 5 mg/L): X (X = MIC of less than 0.5 mg/L.)
- Biapenem MIC ([1]; Compound 5 […]): X (X = MIC of less than 0.5 mg/L.)
- Biapenem MIC ([2]; Compound 5 0.31 mg/L): Y (Y = MIC of 0.5 mg/L to 4 mg/L.)
- Biapenem MIC ([2]; Compound 5 0.625 mg/L): Y (Y = MIC of 0.5 mg/L to 4 mg/L.)
- Biapenem MIC ([2]; Compound 5 5 mg/L): X (X = MIC of less than 0.5 mg/L.)
- Biapenem MIC ([2]; Compound 5 10 mg/L): X (X = MIC of less than 0.5 mg/L.)
- Biapenem MIC ([2]; Compound 5 […]): Y (Y = MIC of 0.5 mg/L to 4 mg/L.)
- Biapenem MIC ([3]; Compound 5 0.31 mg/L): X (X = MIC of less than 0.5 mg/L.)
- Biapenem MIC ([3]; Compound 5 0.625 mg/L): X (X = MIC of less than 0.5 mg/L.)
- Biapenem MIC ([3]; Compound 5 5 mg/L): X (X = MIC of less than 0.5 mg/L.)
- Biapenem MIC ([3]; Compound 5 10 mg/L): X (X = MIC of less than 0.5 mg/L.)
- Biapenem MIC ([3]; Compound 5 […]): X (X = MIC of less than 0.5 mg/L.)
- Biapenem MIC ([4]; Compound 5 0.31 mg/L): Y (Y = MIC of 0.5 mg/L to 4 mg/L.)
- Biapenem MIC ([4]; Compound 5 0.625 mg/L): Y (Y = MIC of 0.5 mg/L to 4 mg/L.)
- Biapenem MIC ([4]; Compound 5 5 mg/L): X (X = MIC of less than 0.5 mg/L.)
- Biapenem MIC ([4]; Compound 5 10 mg/L): X (X = MIC of less than 0.5 mg/L.)
- Biapenem MIC ([5]; Compound 5 0.31 mg/L): X (X = MIC of less than 0.5 mg/L.)
- Biapenem MIC ([5]; Compound 5 0.625 mg/L): X (X = MIC of less than 0.5 mg/L.)
- Biapenem MIC ([5]; Compound 5 5 mg/L): NG (NG = No Growth.)
- Biapenem MIC ([5]; Compound 5 10 mg/L): NG (NG = No Growth.)
- Biapenem MIC ([5]; Compound 5 […]): X (X = MIC of less than 0.5 mg/L.)
- Biapenem MIC ([6]; Compound 5 0.31 mg/L): X (X = MIC of less than 0.5 mg/L.)
- Biapenem MIC ([6]; Compound 5 0.625 mg/L): X (X = MIC of less than 0.5 mg/L.)
- Biapenem MIC ([6]; Compound 5 5 mg/L): X (X = MIC of less than 0.5 mg/L.)
- Biapenem MIC ([6]; Compound 5 10 mg/L): X (X = MIC of less than 0.5 mg/L.)
- Biapenem MIC ([6]; Compound 5 […]): X (X = MIC of less than 0.5 mg/L.)
- Biapenem MIC ([7]; Compound 5 0.31 mg/L): X (X = MIC of less than 0.5 mg/L.)
- Biapenem MIC ([7]; Compound 5 0.625 mg/L): X (X = MIC of less than 0.5 mg/L.)
- Biapenem MIC ([7]; Compound 5 5 mg/L): X (X = MIC of less than 0.5 mg/L.)
- Biapenem MIC ([7]; Compound 5 10 mg/L): X (X = MIC of less than 0.5 mg/L.)
- Biapenem MIC ([8]; Compound 5 0.31 mg/L): X (X = MIC of less than 0.5 mg/L.)
- Biapenem MIC ([8]; Compound 5 0.625 mg/L): X (X = MIC of less than 0.5 mg/L.)
- Biapenem MIC ([8]; Compound 5 5 mg/L): NG (NG = No Growth.)
- Biapenem MIC ([8]; Compound 5 10 mg/L): NG (NG = No Growth.)
- Biapenem MIC ([8]; Compound 5 […]): X (X = MIC of less than 0.5 mg/L.)
- Biapenem MIC ([9]; Compound 5 0.31 mg/L): X (X = MIC of less than 0.5 mg/L.)
- Biapenem MIC ([9]; Compound 5 0.625 mg/L): X (X = MIC of less than 0.5 mg/L.)
- Biapenem MIC ([9]; Compound 5 5 mg/L): X (X = MIC of less than 0.5 mg/L.)
- Biapenem MIC ([9]; Compound 5 10 mg/L): X (X = MIC of less than 0.5 mg/L.)
- Biapenem MIC ([9]; Compound 5 […]): X (X = MIC of less than 0.5 mg/L.)
- Biapenem MIC ([10]; Compound 5 0.31 mg/L): Y (Y = MIC of 0.5 mg/L to 4 mg/L.)
- Biapenem MIC ([10]; Compound 5 0.625 mg/L): X (X = MIC of less than 0.5 mg/L.)
- Biapenem MIC ([10]; Compound 5 5 mg/L): X (X = MIC of less than 0.5 mg/L.)
- Biapenem MIC ([10]; Compound 5 10 mg/L): X (X = MIC of less than 0.5 mg/L.)
- Biapenem MIC ([11]; Compound 5 0.31 mg/L): Z (Z = MIC of greater than 4 mg/L.)
- Biapenem MIC ([11]; Compound 5 0.625 mg/L): Z (Z = MIC of greater than 4 mg/L.)
- Biapenem MIC ([11]; Compound 5 5 mg/L): X (X = MIC of less than 0.5 mg/L.)
- Biapenem MIC ([12]; Compound 5 0.31 mg/L): X (X = MIC of less than 0.5 mg/L.)
- Biapenem MIC ([12]; Compound 5 0.625 mg/L): X (X = MIC of less than 0.5 mg/L.)
- Biapenem MIC ([12]; Compound 5 5 mg/L): X (X = MIC of less than 0.5 mg/L.)
- Biapenem MIC ([13]; Compound 5 0.31 mg/L): Z (Z = MIC of greater than 4 mg/L.)
- Biapenem MIC ([13]; Compound 5 0.625 mg/L): Z (Z = MIC of greater than 4 mg/L.)
- Biapenem MIC ([13]; Compound 5 5 mg/L): X (X = MIC of less than 0.5 mg/L.)
- Biapenem MIC ([13]; Compound 5 10 mg/L): X (X = MIC of less than 0.5 mg/L.)
- Biapenem MIC ([14]; Compound 5 0.31 μg/ml): 2 µg/mL
- Biapenem MIC ([14]; Compound 5 0.63 μg/ml): 1 µg/mL
- Biapenem MIC ([14]; Compound 5 5 μg/ml): 1 µg/mL
- Biapenem MIC ([14]; Compound 5 10 μg/ml): 1 µg/mL
- Biapenem MIC ([14]; Compound 5 20 μg/ml): 1 µg/mL
- Biapenem MIC ([14]; Compound 5 […]): 1 µg/mL
- Aztreonam MIC (μg/ml) in the presence of BLI ([15]; Compound 5 0.31 μg/ml): 256 µg/mL
- Aztreonam MIC (μg/ml) in the presence of BLI ([15]; Compound 5 0.63 μg/ml): 128 µg/mL
- Aztreonam MIC (μg/ml) in the presence of BLI ([15]; Compound 5 5 μg/ml): 8 µg/mL
- Aztreonam MIC (μg/ml) in the presence of BLI ([15]; Compound 5 10 μg/ml): 4 µg/mL
- Aztreonam MIC (μg/ml) in the presence of BLI ([15]; Compound 5 20 μg/ml): 2 µg/mL
- potentiation of biapenem [16]: significantly potentiate biapenem
